From ChEMBL document CHEMBL4364276, “Discovery of 4-phenyl-2H-benzo[b][1,4]oxazin-3(4H)-one derivatives as potent and orally active PI3K/mTOR dual inhibitors” (Eur J Med Chem, 2019)

Key:
[1] = molecular target: Calcium/calmodulin-dependent protein kinase type II subunit gamma (Homo sapiens) (UniProt Q13555); experiment: Inhibition of human CAMK2G at 100 nM using KKLNRTLSFAEPG as substrate by [gamma-33P]-ATP assay
[2] = molecular target: Phosphorylase b kinase gamma catalytic chain, skeletal muscle/heart isoform (Homo sapiens) (UniProt Q16816); experiment: Inhibition of human PHKgamma1 at 100 nM using MBP as substrate by [gamma-33P]-ATP assay
[3] = molecular target: Serine/threonine-protein kinase 38-like (Homo sapiens) (UniProt Q9Y2H1); experiment: Inhibition of human STK38L at 100 nM using KKRNRRLSVA as substrate by [gamma-33P]-ATP assay
[4] = molecular target: Wee1-like protein kinase (Homo sapiens) (UniProt P30291); experiment: Inhibition of human WEE1 at 100 nM using MBP as substrate by [gamma-33P]-ATP assay
[5] = molecular target: Dual specificity mitogen-activated protein kinase kinase 2 (Homo sapiens) (UniProt P36507); experiment: Inhibition of human MEK2 at 100 nM using ERK2 as substrate by [gamma-33P]-ATP assay
[6] = molecular target: Calcium/calmodulin-dependent protein kinase type 1G (Homo sapiens) (UniProt Q96NX5); experiment: Inhibition of human CAMK1G at 100 nM using KKALRRQETVDAL as substrate by [gamma-33P]-ATP assay
[7] = molecular target: Platelet-derived growth factor receptor beta (Homo sapiens) (UniProt P09619); experiment: Inhibition of human PDGFRbeta at 100 nM using poly[Glu:Tyr] (4:1) as substrate by [gamma-33P]-ATP assay
[8] = molecular target: Casein kinase I isoform epsilon (Homo sapiens) (UniProt P49674); experiment: Inhibition of human CK1E at 100 nM using KRRRAL[pS]VASLPGL as substrate by [gamma-33P]-ATP assay
[9] = molecular target: Tyrosine-protein kinase Lyn (Homo sapiens) (UniProt P07948); experiment: Inhibition of human LYN-B at 100 nM using poly[Glu:Tyr] (4:1) as substrate by [gamma-33P]-ATP assay
[10] = molecular target: CDK6/cyclin D1 (Homo sapiens) (UniProt P24385+Q00534); experiment: Inhibition of human CDK6/cyclin-D1 at 100 nM using RB protein as substrate by [gamma-33P]-ATP assay; type: protein-complex assay
[11] = molecular target: Calcium/calmodulin-dependent protein kinase type 1D (Homo sapiens) (UniProt Q8IU85); experiment: Inhibition of human CAMK1D at 100 nM using KKALRRQETVDAL as substrate by [gamma-33P]-ATP assay
[12] = molecular target: Death-associated protein kinase 2 (Homo sapiens) (UniProt Q9UIK4); experiment: Inhibition of human DAPK2 at 100 nM using KKLNRTLSFAEPG as substrate by [gamma-33P]-ATP assay
[13] = molecular target: Angiopoietin-1 receptor (Homo sapiens) (UniProt Q02763); experiment: Inhibition of human TIE2 at 100 nM using poly[Glu:Tyr] (4:1) as substrate by [gamma-33P]-ATP assay
[14] = molecular target: Mitogen-activated protein kinase kinase kinase 11 (Homo sapiens) (UniProt Q16584); experiment: Inhibition of human MLK3 at 100 nM using MBP as substrate by [gamma-33P]-ATP assay
A549 = experiment: Antitumor activity against human A549 cells xenografted in BALB/c nude mouse assessed as tumor growth inhibition at 20 mg/kg, ig administered for 30 days measured every 3 days during compound dosing relative to control; type: functional; conditions: A549, po, read-out: TGI
[15] = molecular target: Serine/threonine-protein kinase D1 (Homo sapiens) (UniProt Q15139); experiment: Inhibition of human PKCmu at 100 nM using KKLNRTLSVA as substrate by [gamma-33P]-ATP assay
[16] = molecular target: Eukaryotic translation initiation factor 2-alpha kinase 1 (Homo sapiens) (UniProt Q9BQI3); experiment: Inhibition of human EIF2AK1 at 100 nM using MBP as substrate by [gamma-33P]-ATP assay
L02 = experiment: Cytotoxicity against human LO2 cells assessed as reduction in cell viability at 0.625 to 20 uM incubated for 72 hrs by MTT assay; type: cell-based; conditions: l02, 72 h
[17] = molecular target: Serine/threonine-protein kinase PAK 1 (Homo sapiens) (UniProt Q13153); experiment: Inhibition of human PAK1 at 100 nM using RRRLSFAEPG as substrate by [gamma-33P]-ATP assay
[18] = molecular target: Ephrin type-B receptor 2 (Homo sapiens) (UniProt P29323); experiment: Inhibition of human EPHB2 at 100 nM using poly[Glu:Tyr] (4:1) as substrate by [gamma-33P]-ATP assay
[19] = molecular target: Homeodomain-interacting protein kinase 2 (Homo sapiens) (UniProt Q9H2X6); experiment: Inhibition of human HIPK2 at 100 nM using MBP as substrate by [gamma-33P]-ATP assay
[20] = molecular target: Serine/threonine-protein kinase Sgk2 (Homo sapiens) (UniProt Q9HBY8); experiment: Inhibition of human SGK2 at 100 nM using KGSGSGRPRTSSFAEG as substrate by [gamma-33P]-ATP assay
[21] = molecular target: Myosin light chain kinase (Homo sapiens) (UniProt Q32MK0); experiment: Inhibition of human MYLK3 at 100 nM using KKRPQRRYSNVF as substrate by [gamma-33P]-ATP assay
[22] = molecular target: Serine/threonine-protein kinase PAK 2 (Homo sapiens) (UniProt Q13177); experiment: Inhibition of human PAK2 at 100 nM using RRRLSFAEPG as substrate by [gamma-33P]-ATP assay
[23] = molecular target: Serine/threonine-protein kinase 32C (Homo sapiens) (UniProt Q86UX6); experiment: Inhibition of human STK32C at 100 nM using MBP as substrate by [gamma-33P]-ATP assay
[24] = molecular target: Cyclin-Y/Cyclin-dependent kinase 16 (Homo sapiens) (UniProt Q00536+Q8ND76); experiment: Inhibition of human CDK16/cyclin-Y at 100 nM using RB protein as substrate by [gamma-33P]-ATP assay; type: protein-complex assay
[25] = molecular target: Dual specificity tyrosine-phosphorylation-regulated kinase 2 (Homo sapiens) (UniProt Q92630); experiment: Inhibition of human DYRK2 at 100 nM using RRRFRPASPLRGPPK as substrate by [gamma-33P]-ATP assay
[26] = molecular target: Serine/threonine-protein kinase haspin (Homo sapiens) (UniProt Q8TF76); experiment: Inhibition of human haspin at 100 nM using Histone H3 as substrate by [gamma-33P]-ATP assay
[27] = molecular target: Vascular endothelial growth factor receptor 1 (Homo sapiens) (UniProt P17948); experiment: Inhibition of human FLT1 at 100 nM using poly[Glu:Tyr] (4:1) as substrate by [gamma-33P]-ATP assay
[28] = molecular target: MAP kinase-activated protein kinase 5 (Homo sapiens) (UniProt Q8IW41); experiment: Inhibition of human MAPKAPK5 at 100 nM using KKLNRTLSVA as substrate by [gamma-33P]-ATP assay
MAP kinase-activated protein kinase 5 (Homo sapiens), sequence (Q8IW41 whole entry): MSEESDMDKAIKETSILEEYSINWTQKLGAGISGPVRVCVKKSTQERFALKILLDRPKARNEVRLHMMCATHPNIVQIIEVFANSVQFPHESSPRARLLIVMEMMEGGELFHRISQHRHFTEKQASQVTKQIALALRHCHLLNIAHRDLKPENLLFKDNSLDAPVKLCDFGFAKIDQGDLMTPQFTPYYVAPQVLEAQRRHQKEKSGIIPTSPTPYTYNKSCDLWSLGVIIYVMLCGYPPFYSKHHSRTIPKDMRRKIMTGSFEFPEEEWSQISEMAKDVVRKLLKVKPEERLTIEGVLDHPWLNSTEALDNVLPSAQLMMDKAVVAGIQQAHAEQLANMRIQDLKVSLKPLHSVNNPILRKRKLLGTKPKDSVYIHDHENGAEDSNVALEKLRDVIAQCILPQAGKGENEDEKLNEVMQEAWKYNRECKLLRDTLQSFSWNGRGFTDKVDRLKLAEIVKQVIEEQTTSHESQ

Casein kinase I isoform epsilon (Homo sapiens), sequence (P49674 whole entry, looked up, canonical isoform): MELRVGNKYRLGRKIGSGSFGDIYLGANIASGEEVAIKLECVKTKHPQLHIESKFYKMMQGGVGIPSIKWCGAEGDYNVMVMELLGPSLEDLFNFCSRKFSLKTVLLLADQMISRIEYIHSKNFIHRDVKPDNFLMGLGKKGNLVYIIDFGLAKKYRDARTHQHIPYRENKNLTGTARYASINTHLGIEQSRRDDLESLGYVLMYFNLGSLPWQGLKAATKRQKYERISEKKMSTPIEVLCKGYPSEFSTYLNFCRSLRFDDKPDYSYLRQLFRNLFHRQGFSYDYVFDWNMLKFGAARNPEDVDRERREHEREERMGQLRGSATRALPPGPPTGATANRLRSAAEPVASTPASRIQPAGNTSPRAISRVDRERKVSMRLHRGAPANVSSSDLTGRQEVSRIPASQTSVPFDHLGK
Platelet-derived growth factor receptor beta (Homo sapiens), sequence (P09619 whole entry, canonical isoform): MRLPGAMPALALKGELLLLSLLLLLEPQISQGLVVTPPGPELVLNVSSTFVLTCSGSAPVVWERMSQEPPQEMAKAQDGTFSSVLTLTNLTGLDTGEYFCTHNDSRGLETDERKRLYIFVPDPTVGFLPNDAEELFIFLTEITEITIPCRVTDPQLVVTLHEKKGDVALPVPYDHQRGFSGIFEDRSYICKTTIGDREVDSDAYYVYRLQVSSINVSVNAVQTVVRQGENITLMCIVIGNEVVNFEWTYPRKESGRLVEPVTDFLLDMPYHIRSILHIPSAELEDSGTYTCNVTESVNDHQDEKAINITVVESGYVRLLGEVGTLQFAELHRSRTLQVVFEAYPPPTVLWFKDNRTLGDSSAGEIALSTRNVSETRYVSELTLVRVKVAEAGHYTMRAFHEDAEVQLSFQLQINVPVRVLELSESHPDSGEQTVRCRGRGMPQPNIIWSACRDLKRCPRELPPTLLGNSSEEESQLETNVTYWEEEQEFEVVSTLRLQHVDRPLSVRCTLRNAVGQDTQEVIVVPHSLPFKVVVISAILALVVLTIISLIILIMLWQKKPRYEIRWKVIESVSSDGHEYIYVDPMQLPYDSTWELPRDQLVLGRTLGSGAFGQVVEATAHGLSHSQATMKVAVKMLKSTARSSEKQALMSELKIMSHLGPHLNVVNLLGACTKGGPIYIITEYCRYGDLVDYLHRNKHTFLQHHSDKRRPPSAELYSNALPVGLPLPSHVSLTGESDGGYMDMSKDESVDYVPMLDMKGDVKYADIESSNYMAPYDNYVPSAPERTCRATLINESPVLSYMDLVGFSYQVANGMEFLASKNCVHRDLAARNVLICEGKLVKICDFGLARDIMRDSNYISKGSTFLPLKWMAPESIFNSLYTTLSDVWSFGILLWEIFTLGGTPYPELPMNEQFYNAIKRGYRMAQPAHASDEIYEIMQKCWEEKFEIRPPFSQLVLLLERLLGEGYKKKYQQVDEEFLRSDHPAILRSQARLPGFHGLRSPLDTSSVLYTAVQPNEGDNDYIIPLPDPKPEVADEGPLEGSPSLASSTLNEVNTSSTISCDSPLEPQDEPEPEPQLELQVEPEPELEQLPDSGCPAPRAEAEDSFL
Calcium/calmodulin-dependent protein kinase type 1D (Homo sapiens), sequence (Q8IU85 whole entry, looked up): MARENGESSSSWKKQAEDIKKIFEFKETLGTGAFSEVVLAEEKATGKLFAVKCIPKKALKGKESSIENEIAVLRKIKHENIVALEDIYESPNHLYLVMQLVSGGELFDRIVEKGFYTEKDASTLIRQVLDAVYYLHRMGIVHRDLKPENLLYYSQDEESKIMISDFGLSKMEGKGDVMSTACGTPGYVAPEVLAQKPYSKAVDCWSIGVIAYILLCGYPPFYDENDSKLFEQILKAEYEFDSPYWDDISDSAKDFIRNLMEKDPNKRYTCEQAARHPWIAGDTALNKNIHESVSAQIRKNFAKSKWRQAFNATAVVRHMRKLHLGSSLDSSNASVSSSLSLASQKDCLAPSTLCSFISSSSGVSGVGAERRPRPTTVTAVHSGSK
Death-associated protein kinase 2 (Homo sapiens), sequence (Q9UIK4 whole entry, looked up): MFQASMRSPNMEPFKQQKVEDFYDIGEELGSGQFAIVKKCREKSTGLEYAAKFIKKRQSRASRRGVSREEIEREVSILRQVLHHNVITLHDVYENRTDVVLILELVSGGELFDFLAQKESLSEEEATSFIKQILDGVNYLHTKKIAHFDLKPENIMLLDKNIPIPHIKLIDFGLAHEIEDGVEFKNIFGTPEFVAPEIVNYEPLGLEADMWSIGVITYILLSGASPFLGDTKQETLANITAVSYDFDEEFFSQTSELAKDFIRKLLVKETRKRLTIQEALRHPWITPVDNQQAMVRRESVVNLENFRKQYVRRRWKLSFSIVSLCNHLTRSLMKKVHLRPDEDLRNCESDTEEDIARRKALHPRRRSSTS
Serine/threonine-protein kinase D1 (Homo sapiens), sequence (Q15139 whole entry): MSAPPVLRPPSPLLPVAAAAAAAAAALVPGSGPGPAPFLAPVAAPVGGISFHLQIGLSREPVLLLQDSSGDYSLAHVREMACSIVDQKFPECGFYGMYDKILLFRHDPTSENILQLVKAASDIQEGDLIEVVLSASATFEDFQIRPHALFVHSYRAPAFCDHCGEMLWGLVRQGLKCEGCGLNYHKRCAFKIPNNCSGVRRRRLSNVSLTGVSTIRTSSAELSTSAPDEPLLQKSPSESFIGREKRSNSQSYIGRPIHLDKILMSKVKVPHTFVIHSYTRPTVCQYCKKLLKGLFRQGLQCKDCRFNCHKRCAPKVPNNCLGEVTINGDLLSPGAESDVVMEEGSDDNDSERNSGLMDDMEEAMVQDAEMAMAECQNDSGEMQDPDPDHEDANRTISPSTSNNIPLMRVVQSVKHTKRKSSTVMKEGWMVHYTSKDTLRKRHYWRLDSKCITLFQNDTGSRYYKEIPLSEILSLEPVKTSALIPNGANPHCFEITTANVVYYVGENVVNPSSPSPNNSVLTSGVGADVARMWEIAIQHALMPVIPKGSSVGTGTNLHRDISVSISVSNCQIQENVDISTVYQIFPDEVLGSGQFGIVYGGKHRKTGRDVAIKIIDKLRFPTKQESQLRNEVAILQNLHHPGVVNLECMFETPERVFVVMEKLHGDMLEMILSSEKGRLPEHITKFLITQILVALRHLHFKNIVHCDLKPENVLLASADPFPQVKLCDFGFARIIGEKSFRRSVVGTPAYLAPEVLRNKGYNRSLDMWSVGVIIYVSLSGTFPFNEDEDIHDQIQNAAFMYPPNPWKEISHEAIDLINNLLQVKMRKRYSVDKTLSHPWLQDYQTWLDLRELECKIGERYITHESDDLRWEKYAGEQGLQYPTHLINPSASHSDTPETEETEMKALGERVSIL
Homeodomain-interacting protein kinase 2 (Homo sapiens), sequence (Q9H2X6 whole entry, looked up): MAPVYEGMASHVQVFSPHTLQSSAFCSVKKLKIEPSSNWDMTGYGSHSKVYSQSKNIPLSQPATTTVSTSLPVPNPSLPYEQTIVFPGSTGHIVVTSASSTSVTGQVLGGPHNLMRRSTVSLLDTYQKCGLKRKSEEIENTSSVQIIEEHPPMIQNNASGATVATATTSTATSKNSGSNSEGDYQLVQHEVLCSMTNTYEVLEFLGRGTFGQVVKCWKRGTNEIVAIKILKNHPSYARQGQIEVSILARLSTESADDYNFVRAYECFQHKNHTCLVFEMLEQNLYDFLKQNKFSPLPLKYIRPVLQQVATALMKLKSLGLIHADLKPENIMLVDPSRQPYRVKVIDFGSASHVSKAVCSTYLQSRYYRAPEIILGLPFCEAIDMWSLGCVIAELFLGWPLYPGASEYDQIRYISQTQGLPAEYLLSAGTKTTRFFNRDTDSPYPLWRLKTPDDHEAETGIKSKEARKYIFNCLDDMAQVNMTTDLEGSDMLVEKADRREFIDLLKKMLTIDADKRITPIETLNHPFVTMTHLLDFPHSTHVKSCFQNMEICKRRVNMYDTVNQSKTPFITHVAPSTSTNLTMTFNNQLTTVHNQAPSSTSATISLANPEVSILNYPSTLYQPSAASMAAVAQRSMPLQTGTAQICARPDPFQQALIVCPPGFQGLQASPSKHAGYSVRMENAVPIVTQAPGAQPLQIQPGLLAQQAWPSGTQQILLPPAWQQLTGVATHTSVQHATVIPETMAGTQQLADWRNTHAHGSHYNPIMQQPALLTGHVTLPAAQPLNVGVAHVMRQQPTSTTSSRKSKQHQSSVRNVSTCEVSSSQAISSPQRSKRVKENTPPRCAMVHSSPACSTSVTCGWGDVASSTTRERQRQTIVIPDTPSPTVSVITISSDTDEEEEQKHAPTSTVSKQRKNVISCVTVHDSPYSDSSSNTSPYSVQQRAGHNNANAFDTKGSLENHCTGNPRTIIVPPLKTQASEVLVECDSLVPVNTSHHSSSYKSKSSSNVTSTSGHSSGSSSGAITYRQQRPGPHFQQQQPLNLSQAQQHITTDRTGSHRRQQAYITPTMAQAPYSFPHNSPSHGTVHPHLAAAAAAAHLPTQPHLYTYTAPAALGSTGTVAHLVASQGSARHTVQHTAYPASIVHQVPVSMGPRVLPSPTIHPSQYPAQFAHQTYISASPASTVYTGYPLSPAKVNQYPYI

**Q.** COc1ccc(N2C(=O)COc3ccc(-c4cnc(OC)c(NS(=O)(=O)c5ccc(F)cc5)c4)cc32)cc1 was tested. Which inhibition [1] did it give?
**A.** Its inhibition is 2.55%.

**Q.** What about the inhibition [2] of the same compound?
**A.** The inhibition was 12.3%.

**Q.** What about the inhibition [3] of the same compound?
**A.** The inhibition was -2.59%.

**Q.** And the inhibition [4]?
**A.** The inhibition was 6.18%.

**Q.** And the inhibition [5]?
**A.** Its inhibition is 1.12%.

**Q.** What about the inhibition [6] of the same compound?
**A.** Its inhibition is 14.6%.

**Q.** What about the inhibition [7] of the same compound?
**A.** Its inhibition is 0.28%.

**Q.** What about the inhibition [8] of the same compound?
**A.** Its inhibition is 3.34%.

**Q.** What about the inhibition [9] of the same compound?
**A.** The inhibition was 4.9%.

**Q.** And the inhibition [10]?
**A.** The inhibition was 9.71%.

**Q.** What about the inhibition [11] of the same compound?
**A.** Its inhibition is 0%.

**Q.** And the inhibition [12]?
**A.** The inhibition was -3.64%.

**Q.** And the inhibition [13]?
**A.** The inhibition was 8.06%.

**Q.** And the inhibition [14]?
**A.** Its inhibition is 3.29%.

**Q.** And the inhibition in vivo at 20 mg/kg (A549)?
**A.** The inhibition in vivo at 20 mg/kg was 57.8%.

**Q.** What about the inhibition [15] of the same compound?
**A.** The inhibition was 25.9%.

**Q.** And the inhibition [16]?
**A.** The inhibition was 3.42%.

**Q.** And the Activity (L02)?
**A.** Its Activity is “Non-Toxic”.

**Q.** What about the inhibition [17] of the same compound?
**A.** Its inhibition is 7.71%.

**Q.** What about the inhibition [18] of the same compound?
**A.** The inhibition was -6.07%.

**Q.** And the inhibition [19]?
**A.** The inhibition was -4.94%.

**Q.** And the inhibition [20]?
**A.** The inhibition was 5.89%.

**Q.** And the inhibition [21]?
**A.** Its inhibition is 3.77%.

**Q.** What about the inhibition [22] of the same compound?
**A.** Its inhibition is 10.4%.

**Q.** What about the inhibition [23] of the same compound?
**A.** Its inhibition is -6.39%.

**Q.** And the inhibition [24]?
**A.** Its inhibition is 0.27%.

**Q.** And the inhibition [25]?
**A.** The inhibition was 3.05%.

**Q.** And the inhibition [26]?
**A.** The inhibition was 12.1%.

**Q.** What about the inhibition [27] of the same compound?
**A.** The inhibition was 3.08%.

**Q.** And the inhibition [28]?
**A.** The inhibition was 5.14%.
